Measured values as given in patent US11667638B2, “4-substitued cytisine analogues” (The University of Bristol, priority 2016, dated 2023).

Key:
[1] = target: α4β2 nAChR (Homo sapiens (Human), UniProt P17787+P43681); assay type: binding; details: ratio of Ki values
Description: HEK 293 cells were grown in Dulbecco's modified Eagle medium supplemented with 10% fetal bovine serum, 1% L-Glutamine, 100 units/ml penicillin G, and 100 μg/streptomycin in a humidified atmosphere containing 10% CO2. The cDNAs encoding α3 and β4 or α4 and β2 (were transfected into the HEK 293 cells at 30% confluency). The cell transfections were carried out in 100 mm Petri dishes using 30 μL of JetPEI™ (Polypus, France) (1 mg/ml, pH 7.2) and 3 μg of each cDNA. After 24 h transfection, the cells were collected, washed with PBS by centrifugation, and used for binding analysis.
[^3H]-epibatidine saturation binding experiments to HEK transfected α3β4 or α4β2 receptors were performed by means of overnight incubation at 4° C. at concentrations ranging from 0.005 to 1 nM in a buffer containing 50 mM Tris-HCl, pH 7, 150 mM NaCl, 5 mM KCl, 1 mM MgCl2, 2.5 mM CaCl2 and 2 mg/ml BSA, in the presence (aspecific binding) or absence (total binding) of 100 nM cold epibatidine. Specific ligand binding was defined as total binding minus the binding in the presence of 100 nM cold epibatidine.
After incubation, the membranes of HEK cells transfected with α4β2* or α3β4 subtypes were washed by filtration on GFC filters with ice-cold PBS. The GFC filters were pre-soaked in polyethylenimine and filtered through an harvester apparatus. [^3H]-epibatidine binding was determined by means of liquid scintillation counting in a beta counter.
The ligand binding data were analyzed by means of nonlinear regression using Prism version 5 (GraphPad Software, Inc., La Jolla, Calif.). The Ki values were calculated from the experimental IC50 values using the Cheng-Prusoff equation for a single population of competitive sites: Ki=IC50/[1+(L/Kd)], where L is the concentration of radioligand used in each experiment and the Kd values were determined by saturation binding experiment. All of the assays were performed in duplicate and repeated at least two-three times.

[2] = target: (α4)3(β2)2 nAChRs (Homo sapiens (Human), UniProt P17787+P43681); experiment: Maximal gating efficacy on (α4)3(β2)2 nAChRs in Xenopus oocytes, two electrode voltage clamp; assay type: cell-based; details: (α4)3(β2)2, low sensitivity stoichiometry; maximal current relative to 1 mM ACh
Sequence of (α4)3(β2)2 nAChRs (P43681 29-627): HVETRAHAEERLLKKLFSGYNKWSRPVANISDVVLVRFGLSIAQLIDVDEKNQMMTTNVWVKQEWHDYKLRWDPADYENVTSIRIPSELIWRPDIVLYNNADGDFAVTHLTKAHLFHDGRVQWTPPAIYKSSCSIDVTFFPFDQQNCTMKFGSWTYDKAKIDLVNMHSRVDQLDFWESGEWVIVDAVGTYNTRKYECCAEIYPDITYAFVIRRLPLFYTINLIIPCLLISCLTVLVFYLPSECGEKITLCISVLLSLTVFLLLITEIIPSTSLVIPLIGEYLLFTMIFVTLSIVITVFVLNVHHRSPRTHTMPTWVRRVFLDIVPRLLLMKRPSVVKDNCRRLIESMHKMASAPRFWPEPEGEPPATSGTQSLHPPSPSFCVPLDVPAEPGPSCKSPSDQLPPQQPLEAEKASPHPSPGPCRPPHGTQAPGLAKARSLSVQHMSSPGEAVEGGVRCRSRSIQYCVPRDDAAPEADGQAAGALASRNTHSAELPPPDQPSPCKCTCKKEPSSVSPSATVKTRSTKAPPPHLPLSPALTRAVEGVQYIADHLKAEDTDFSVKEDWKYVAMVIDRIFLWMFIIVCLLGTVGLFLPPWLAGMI
Sequence of (α4)3(β2)2 nAChRs (P17787 26-502): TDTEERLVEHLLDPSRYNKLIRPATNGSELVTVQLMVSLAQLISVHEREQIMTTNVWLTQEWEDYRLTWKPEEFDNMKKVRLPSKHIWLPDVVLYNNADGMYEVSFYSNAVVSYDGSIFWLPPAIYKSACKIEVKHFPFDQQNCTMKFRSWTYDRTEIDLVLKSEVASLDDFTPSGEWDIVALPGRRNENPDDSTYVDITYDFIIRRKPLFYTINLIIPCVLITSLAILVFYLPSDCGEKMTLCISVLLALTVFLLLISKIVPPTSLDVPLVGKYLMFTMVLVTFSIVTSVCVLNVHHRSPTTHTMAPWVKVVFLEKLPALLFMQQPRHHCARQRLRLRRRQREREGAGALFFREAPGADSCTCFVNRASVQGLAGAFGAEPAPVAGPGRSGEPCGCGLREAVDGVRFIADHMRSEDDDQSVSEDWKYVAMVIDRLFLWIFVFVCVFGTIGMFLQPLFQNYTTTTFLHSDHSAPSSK
Description: (§1) Compounds of the invention were tested for effects on the function of human α4β2, α3β4 and α7 nicotinic acetylcholine receptors (nAChRs) expressed heterologously in Xenopus oocytes. […] Expression in oocytes was obtained as follows: pCI (Promega, UK) plasmid containing human α4, β2, β4 or α7 complementary DNA were injected as previously described (Moroni et al., 2006). To express (α4)3(β2)2 nACh receptors, a mixture of 10α4:1β2 cDNAs was injected into the nucleus of oocytes, whereas for (α4)2(β2)3 receptors the cDNA ratio injected was 1α4:10β2.
(§2) Functional studies: Recordings were performed manually using a Geneclamp amplifier (Molecular Devices, USA) or using an automated HiClamp system. In both cases the oocytes were impaled with two electrodes filled with 3 M KCl and the cells were held at −60 mV throughout the experiments.
(§3) Oocyte isolation and two-electrode voltage-clamp recordings on oocytes were carried out as previously described (Moroni et al., 2006; Carbone et al., 2009). […] A minimum interval of 5 min was allowed between agonist applications to ensure reproducible recordings. Oocytes were exposed to increasing concentrations of the compounds until no further increases in the response amplitude were obtained. This concentration was taken as the concentration that causes maximal responses on the receptors tested. The data summarised in Tables 1-4 were obtained from at least 5 experiments carried out on oocytes obtained from at least three different donors.
Maximal gating efficacy of the compounds: The concentration of the compounds of the invention causing maximal activation of the (α4)3(β2)2 nAChRs expressed heterologously in Xenopus oocytes was determined using two electrode voltage clamping.

[3] = target: (α4)2(β2)3 nAChRs (Homo sapiens (Human), UniProt P17787+P43681); experiment: Maximal gating efficacy on (α4)2(β2)3 nAChRs in Xenopus oocytes, two electrode voltage clamp; assay type: cell-based; details: (α4)2(β2)3, high sensitivity receptors; maximal current relative to 1 mM ACh
Sequence of (α4)2(β2)3 nAChRs (P43681 29-627): as the sequence (P43681 29-627) above
Sequence of (α4)2(β2)3 nAChRs (P17787 26-502): as the sequence (P17787 26-502) above
Description: as §1, §2, §3
Maximal gating efficacy of compounds on (α4)2(β2)3 receptors (high sensitivity receptors): The concentration of the compounds causing maximal activation of the (α4)2(β2)3 nAChRs expressed heterologously in Xenopus oocytes was determined using two electrode voltage clamping.

[4] = target: α3β4 nAChRs (Homo sapiens (Human), UniProt P30926+P32297); experiment: Maximal gating efficacy on α3β4 nAChRs in Xenopus oocytes, two electrode voltage clamp; assay type: cell-based; details: maximal current relative to 1 mM ACh
Sequence of α3β4 nAChRs (P32297 32-505): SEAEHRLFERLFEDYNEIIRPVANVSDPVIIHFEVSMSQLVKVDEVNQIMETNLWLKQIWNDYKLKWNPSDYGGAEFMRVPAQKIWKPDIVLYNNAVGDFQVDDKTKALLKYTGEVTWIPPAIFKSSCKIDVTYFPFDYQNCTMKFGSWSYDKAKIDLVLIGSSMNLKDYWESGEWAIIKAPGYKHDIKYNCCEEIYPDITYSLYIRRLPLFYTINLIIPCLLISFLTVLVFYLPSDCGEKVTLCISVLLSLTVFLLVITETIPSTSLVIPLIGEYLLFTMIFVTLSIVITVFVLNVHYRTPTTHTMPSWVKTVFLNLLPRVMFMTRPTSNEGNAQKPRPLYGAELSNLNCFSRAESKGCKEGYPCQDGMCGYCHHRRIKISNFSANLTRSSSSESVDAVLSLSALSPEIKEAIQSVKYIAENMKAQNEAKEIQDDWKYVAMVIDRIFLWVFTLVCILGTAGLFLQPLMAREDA
Sequence of α3β4 nAChRs (P30926 22-498): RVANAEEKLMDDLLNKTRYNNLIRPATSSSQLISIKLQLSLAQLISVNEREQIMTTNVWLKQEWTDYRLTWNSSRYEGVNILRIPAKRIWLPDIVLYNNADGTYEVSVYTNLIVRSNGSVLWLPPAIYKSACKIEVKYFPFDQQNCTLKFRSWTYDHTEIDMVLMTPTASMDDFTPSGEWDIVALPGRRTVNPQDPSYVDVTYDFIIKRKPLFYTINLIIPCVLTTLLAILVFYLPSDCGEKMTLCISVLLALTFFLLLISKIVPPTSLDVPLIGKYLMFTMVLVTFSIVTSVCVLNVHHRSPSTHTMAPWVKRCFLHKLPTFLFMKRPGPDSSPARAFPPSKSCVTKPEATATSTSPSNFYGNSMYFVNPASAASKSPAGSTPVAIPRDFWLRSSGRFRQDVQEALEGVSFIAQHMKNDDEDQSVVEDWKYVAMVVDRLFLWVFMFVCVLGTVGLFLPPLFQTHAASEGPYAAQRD
Description: as §1, §2, §3
Maximal gating efficacy of the compounds on α3β4 nAChRs: The concentration of the compounds causing maximal activation of α3β4 nAChRs expressed heterologously in Xenopus oocytes was determined using two electrode voltage clamping.

Sequence of α4β2 nAChR (P43681 29-627 limits assumed): as the sequence (P43681 29-627) above
Sequence of α4β2 nAChR (P17787 26-502 limits assumed): as the sequence (P17787 26-502) above

Molecule	Ratio α3β4/α4β2 [1]	Relative efficacy (ACh) [2]	Relative efficacy (ACh) [3]	Relative efficacy (ACh) [4]
CNc1cc2n(c(=O)c1)CC1CNC[C@@H]2C1 (single isomer, unassigned; (+)) [Compound 84, (+)4-(N-Methylamino)cytisine]	2546.3	0.048 ± 0.040	0.042 ± 0.059	0.0233 ± 0.005
N#Cc1cc2n(c(=O)c1)CC1CNC[C@@H]2C1 (single isomer, unassigned; (-)) [Compound 140, (−)4-Cyanocytisine]	199.5	0.050 ± 0.027	0.026 ± 0.036	0.172 ± 0.064
Cl.O=c1cc(CC(F)(F)F)cc2n1CC1CNC[C@@H]2C1 (single isomer, unassigned; (-)) [Compound 79, (−)4-(2,2,2-Trifluoroethyl)cytisine]	27.4			
Cl.O=c1c(Br)c(I)cc2n1CC1CNC[C@@H]2C1 (single isomer, unassigned; (+)) [Compound 160, (+)3-Bromo-4-iodocytisine]	50.0			
CN(C)Cc1cc2n(c(=O)c1)CC1CNC[C@@H]2C1 [Compound 151, 4-(dimethylamino)methyl-(−)-cytisine]	105.7			
CNc1cc2n(c(=O)c1Br)CC1CNC[C@@H]2C1 (single isomer, unassigned; (+)) [Compound 158, (+)3-Bromo-4-N-methylaminocytisine]	106.9	0.049 ± 0.012	0.038 ± 0.054	0.057 ± 0.016
CNCc1cc2n(c(=O)c1)CC1CNC[C@@H]2C1 (single isomer, unassigned; (-)) [Compound 152, (−)4-((N-methyl)aminomethyl)cytisine]	807.0	0.031 ± 0.043		
O=c1cc(NCc2ccccc2)cc2n1CC1CNC[C@@H]2C1 [Compound 78]	125.0			
Cl.NC(=O)c1cc2n(c(=O)c1)CC1CNC[C@@H]2C1 (single isomer, unassigned; (-)) [Compound 142, (−)4-(carboxyamido)cytisine]	36.2			
Cl.O=c1cc(C#Cc2ccccc2)cc2n1CC1CNC[C@@H]2C1 (single isomer, unassigned; (+)) [Compound 129, (+)4-(phenylacetylene)cytisine]	32.2			
Cl.O=c1cc(C(F)(F)F)cc2n1CC1CNC[C@@H]2C1 (single isomer, unassigned; (-)) [Compound 77, (−)4-Trifluoromethylcytisine]	12.9			
CCNc1cc2n(c(=O)c1)CC1CNCC2C1 (single isomer, unassigned; (+)) [Compound 87, (+)4-(N-ethylamino)cytisine]	835.2	0.011 ± 0.001	0.023 ± 0.032	0.010 ± 0.009
NCc1cc2n(c(=O)c1)CC1CNC[C@@H]2C1 (single isomer, unassigned; (-)) [Compound 144, (−)4-(aminomethyl)cytisine]	78.0			
O=C(Nc1cc2n(c(=O)c1)CC1CNC[C@@H]2C1)c1ccccc1 (single isomer, unassigned; (+)) [Compound 96, (+)4-(N-Benzoylamino)cytisine]	89.6			
O=c1cc(N2CCNCC2)cc2n1CC1CNC[C@@H]2C1 (single isomer, unassigned; (+)) [Compound 90, (+)4-(N-piperazinyl)cytisine]	14.1			
CC(=O)NCc1cc2n(c(=O)c1)CC1CNC[C@@H]2C1.Cl (single isomer, unassigned; (-)) [Compound 148]	204.8	0.041 ± 0.057	0.015 ± 0.021	0.034 ± 0.038

Molecule	Ratio α3β4/α4β2 [1]	Relative efficacy (ACh) [2]	Relative efficacy (ACh) [3]	Relative efficacy (ACh) [4]
O=c1c(Br)c(O)cc2n1CC1CNCC2C1 (single isomer, unassigned; (-)) [BS70, (−)-(3-bromo-4-hydroxy)cytisine]		0.114 ± 0.113		0.108 ± 0.149
Nc1cc2n(c(=O)c1Br)CC1CNCC2C1 (single isomer, unassigned; (+)) [BS71, (+)-(3-bromo-4-amino)cytisine]		0.152 ± 0.1223		0.632 ± 0.067
O=C(O)c1cc2n(c(=O)c1)CC1CNC[C@@H]2C1 (single isomer, unassigned; (-)) [Compound 120, (−)4-Carboxylic acidcytisine]	57.7			
CCc1cc2n(c(=O)c1Br)CC1CNCC2C1 (single isomer, unassigned; (-)) [BS74, (−)-(3-bromo-4-ethyl)cytisine]		0.126 ± 0.067	0.121 ± 0.171	1.75 ± 0.56
O=c1cc(-c2nnn[nH]2)cc2n1CC1CNC[C@@H]2C1 (single isomer, unassigned; (-)) [Compound 149, (−)4-tetrazoylcytisine]	149.2			
Cl.O=c1cc(/C=C/c2ccccc2)cc2n1CC1CNC[C@@H]2C1 (single isomer, unassigned; (+)) [Compound 114, (+)4-(E-(2-phenylethenyl))cytisine]	145.5			
C=Cc1cc2n(c(=O)c1)CC1CNC[C@@H]2C1 (single isomer, unassigned; (+)) [Compound 116, (+)4-Vinylcytisine]	100.1			
O=c1cc(N2CCOCC2)cc2n1CC1CNC[C@@H]2C1 (single isomer, unassigned; (+)) [Compound 92, (+)4-N-morpholinecytisine]	70.6			
NCC(=O)Nc1cc2n(c(=O)c1)CC1CNC[C@@H]2C1 [Compound 98]	1670.0			
O=C(O)[C@@H]1CCCN1c1cc2n(c(=O)c1)CC1CNC[C@@H]2C1 (single isomer, unassigned; (-)) [Compound 138, (−)4-(N-(L-proline)cytisine]	2.7			
(−)4-(3-Pyridinyl)cytisine [Compound 104]	168.7			
(+)4-(E-2-propenoate methyl ester)cytisine [Compound 112]	152.8			
CN(C)c1cc2n(c(=O)c1)CC1CNC[C@@H]2C1 (single isomer, unassigned; (+)) [Compound 86, (+)4-(N,N′-dimethylamino)cytisine]	5.8			
Cl.O=c1cc(CCc2ccccc2)cc2n1CC1CNC[C@@H]2C1 [?]	21.7			
Cl.O=c1ccccn1-c1cc2n(c(=O)c1)CC1CNC[C@@H]2C1 (single isomer, unassigned; (-)) [Compound 108, (−)4-(N-2-pyridone)cytisine]	90.3			
CC(=O)OCC[N+](C)(C)C [ACh, reference compound]		1	1.0	1.0
